“And” between values parts separate entries of the source, which are not always exact repeats. Equal values may be shown once.
Assays:
Format in all cases: biochemical
[1] = molecular target: Abl (Homo sapiens, UniProt P00519); test: Z′-LYTE kinase inhibition assay, Abl
Source text: (§1) All samples were sent out to Life Technologies to obtain kinase inhibition data. A brief description of the assays and analyses are included below.
(§2) Assay Theory (SelectScreen® Kinase Profiling Services (Life Technologies, Madison, Wis. USA). The Z′-LYTE® biochemical assay employs a fluorescence-based, coupled-enzyme format and is based on the differential sensitivity of phosphorylated and non-phosphorylated peptides to proteolytic cleavage. The peptide substrate is labeled with two fluorophores one at each end—that make up a FRET pair.
(§3) In the primary reaction, the kinase transfers the gamma-phosphate of ATP to a single tyrosine, serine or threonine residue in a synthetic FRET-peptide. In the secondary reaction, a site-specific protease recognizes and cleaves non-phosphorylated FRET-peptides.
(§4) Phosphorylation of FRET-peptides suppresses cleavage by the Development Reagent. Cleavage disrupts FRET between the donor (i.e., coumarin) and acceptor (i.e., fluorescein) fluorophores on the FRET-peptide, whereas uncleaved, phosphorylated FRET-peptides maintain FRET. A ratiometric method, which calculates the ratio (the Emission Ratio) of donor emission to acceptor emission after excitation of the donor fluorophore at 400 nm, is used to quantitate reaction progress, as shown in the equation below: […]
(§5) A significant benefit of this ratiometric method for quantitating reaction progress is the elimination of well-to-well variations in FRET-peptide concentration and signal intensities. As a result, the assay yields very high Z′-factor values (>0.7) at a low percent phosphorylation. Both cleaved and uncleaved FRET-peptides contribute to the fluorescence signals and therefore to the Emission Ratio. The extent of phosphorylation of the FRET-peptide can be calculated from the Emission Ratio. The Emission Ratio will remain low if the FRET-peptide is phosphorylated (i.e., no kinase inhibition) and will he high if the FRET-peptide is non-phosphorylated (i.e., kinase inhibition).

[2] = molecular target: Alk (Homo sapiens, UniProt Q9UM73); test: Z′-LYTE kinase inhibition assay, Alk; settings: average of 2 runs
Source text: as §1, §2, §3, §4, §5

[3] = molecular target: Blk (Homo sapiens, UniProt P51451); test: Z′-LYTE kinase inhibition assay, Blk; settings: average of 2 runs
Source text: as §1, §2, §3, §4, §5

[4] = molecular target: BTK (Homo sapiens, UniProt Q06187); test: Z′-LYTE kinase inhibition assay, BTK; settings: average of 2 runs
Source text: as §1, §2, §3, §4, §5

[5] = molecular target: CSK (Homo sapiens, UniProt P41240); test: Z′-LYTE kinase inhibition assay, CSK; settings: average of 2 runs
Source text: as §1, §2, §3, §4, §5

[6] = molecular target: EGFR (Homo sapiens, UniProt P00533); test: Z′-LYTE kinase inhibition assay, EGFR
Source text: as §1, §2, §3, §4, §5

[7] = molecular target: Her-2 (Homo sapiens, UniProt P04626); test: Z′-LYTE kinase inhibition assay, Her-2; settings: average of 2 runs
Source text: as §1, §2, §3, §4, §5

[8] = molecular target: Fgr (Homo sapiens, UniProt P09769); test: Z′-LYTE kinase inhibition assay, Fgr; settings: average of 2 runs
Source text: as §1, §2, §3, §4, §5

[9] = molecular target: Fyn (Homo sapiens, UniProt P06241); test: Z′-LYTE kinase inhibition assay, Fyn; settings: average of 2 runs
Source text: as §1, §2, §3, §4, §5

[10] = molecular target: Hck (Homo sapiens, UniProt P08631); test: Z′-LYTE kinase inhibition assay, Hck; settings: average of 2 runs
Source text: as §1, §2, §3, §4, §5

[11] = molecular target: Kit (Homo sapiens, UniProt P10721); test: Z′-LYTE kinase inhibition assay, Kit; settings: average of 2 runs
Source text: as §1, §2, §3, §4, §5

[12] = molecular target: Lck (Homo sapiens, UniProt P06239); test: Z′-LYTE kinase inhibition assay, Lck; settings: average of 2 runs
Source text: as §1, §2, §3, §4, §5

[13] = molecular target: Lyn (Homo sapiens, UniProt P07948); test: Z′-LYTE kinase inhibition assay, Lyn; settings: average of 2 runs
Source text: as §1, §2, §3, §4, §5

[14] = molecular target: pdgfr-a (Homo sapiens, UniProt P16234); test: Z′-LYTE kinase inhibition assay, pdgfr-a; settings: average of 2 runs
Source text: as §1, §2, §3, §4, §5

[15] = molecular target: pdgfr-b (Homo sapiens, UniProt P09619); test: Z′-LYTE kinase inhibition assay, pdgfr-b; settings: average of 2 runs
Source text: as §1, §2, §3, §4, §5

[16] = molecular target: Ret (Homo sapiens, UniProt P07949); test: Z′-LYTE kinase inhibition assay, Ret
Source text: as §1, §2, §3, §4, §5

[17] = molecular target: Yes (Homo sapiens, UniProt P07947); test: Z′-LYTE kinase inhibition assay, Yes
Source text: as §1, §2, §3, §4, §5

[18] = molecular target: Src kinase (Homo sapiens, UniProt P12931); test: Z′-LYTE kinase inhibition assay, Src
Source text: Based on the observed stereochemical stabilities, we chose 1f, 2e, and 2f for further study and obtained inhibition data against Src kinase from Life Technologies' Z′-LYTE™ kinase assay (Scheme 3).
as §1, §2, §3, §4, §5

[19] = tested on: panel of 18 tyrosine kinases; test: Kinase inhibitor profiling across a panel of tyrosine kinases (selectivity); settings: for S(40%): number of kinases inhibited greater than 40% divided by number of kinases tested (including Src)
Experimental: In order to probe the effect of atropisomeric conformation on kinase selectivity we subjected 1f, 2e, and 2f to kinase inhibitor profiling across a panel of tyrosine kinases at 1000 nM and 5000 nM (data for 2e shown in Scheme 4 below).
To analyze each analog's selectivity across the panel we turned to selectivity scores (Davis et al., Nat. Biotechnol. 2011, 29, 1046-51), simply the number of kinases inhibited above a certain threshold divided by the number of kinases evaluated. […] For example at 1000 nM 2e-(R) yielded an S(40%) of 0.11 while 2e-(S) gave an S(40%) of 0.16. […] Differences in selectivity between 2e-(R) and 2e-(S) at 5000 nM (4.5 times the IC50 of 2e-(S) toward Src) and for 5 at 1000 nM (6.25 times the IC50 of 5 toward Src) can be viewed graphically across tyrosine kinases (FIG. 3). Importantly, similar trends were also observed across each of the atropisomeric series tested.
as §1, §2, §3, §4, §5

Sequence of EGFR (P00533 25-1210): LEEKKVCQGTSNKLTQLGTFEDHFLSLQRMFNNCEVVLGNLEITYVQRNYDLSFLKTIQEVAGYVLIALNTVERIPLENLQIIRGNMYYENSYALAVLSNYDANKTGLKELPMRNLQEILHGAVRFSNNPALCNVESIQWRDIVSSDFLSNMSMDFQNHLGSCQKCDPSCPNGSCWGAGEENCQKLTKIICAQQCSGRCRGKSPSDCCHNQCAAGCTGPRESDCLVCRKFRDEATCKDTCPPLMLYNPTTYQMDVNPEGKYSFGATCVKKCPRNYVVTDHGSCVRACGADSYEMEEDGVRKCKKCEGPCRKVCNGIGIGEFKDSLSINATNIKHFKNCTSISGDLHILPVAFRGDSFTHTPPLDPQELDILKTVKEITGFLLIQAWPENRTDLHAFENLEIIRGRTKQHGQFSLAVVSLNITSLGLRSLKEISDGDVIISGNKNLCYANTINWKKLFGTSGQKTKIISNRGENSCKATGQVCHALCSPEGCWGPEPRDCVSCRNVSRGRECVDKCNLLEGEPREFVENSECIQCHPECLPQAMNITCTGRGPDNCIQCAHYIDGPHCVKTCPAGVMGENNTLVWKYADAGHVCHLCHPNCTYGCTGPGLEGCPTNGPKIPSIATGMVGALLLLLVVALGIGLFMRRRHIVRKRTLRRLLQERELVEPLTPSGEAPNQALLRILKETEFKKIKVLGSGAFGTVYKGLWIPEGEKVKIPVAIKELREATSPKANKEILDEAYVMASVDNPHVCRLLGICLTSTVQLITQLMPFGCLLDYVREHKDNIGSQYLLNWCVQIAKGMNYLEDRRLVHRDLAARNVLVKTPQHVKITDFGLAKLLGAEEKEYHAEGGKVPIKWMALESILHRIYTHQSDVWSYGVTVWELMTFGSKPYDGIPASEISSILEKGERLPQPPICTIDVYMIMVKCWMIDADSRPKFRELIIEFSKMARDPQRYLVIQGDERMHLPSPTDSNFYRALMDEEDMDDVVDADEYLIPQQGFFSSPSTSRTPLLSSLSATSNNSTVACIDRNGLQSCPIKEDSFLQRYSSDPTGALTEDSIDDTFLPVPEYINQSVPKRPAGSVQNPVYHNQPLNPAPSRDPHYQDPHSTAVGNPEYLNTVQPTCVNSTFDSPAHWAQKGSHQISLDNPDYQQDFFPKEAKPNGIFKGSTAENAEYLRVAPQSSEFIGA
Sequence of Abl (P00519 whole entry): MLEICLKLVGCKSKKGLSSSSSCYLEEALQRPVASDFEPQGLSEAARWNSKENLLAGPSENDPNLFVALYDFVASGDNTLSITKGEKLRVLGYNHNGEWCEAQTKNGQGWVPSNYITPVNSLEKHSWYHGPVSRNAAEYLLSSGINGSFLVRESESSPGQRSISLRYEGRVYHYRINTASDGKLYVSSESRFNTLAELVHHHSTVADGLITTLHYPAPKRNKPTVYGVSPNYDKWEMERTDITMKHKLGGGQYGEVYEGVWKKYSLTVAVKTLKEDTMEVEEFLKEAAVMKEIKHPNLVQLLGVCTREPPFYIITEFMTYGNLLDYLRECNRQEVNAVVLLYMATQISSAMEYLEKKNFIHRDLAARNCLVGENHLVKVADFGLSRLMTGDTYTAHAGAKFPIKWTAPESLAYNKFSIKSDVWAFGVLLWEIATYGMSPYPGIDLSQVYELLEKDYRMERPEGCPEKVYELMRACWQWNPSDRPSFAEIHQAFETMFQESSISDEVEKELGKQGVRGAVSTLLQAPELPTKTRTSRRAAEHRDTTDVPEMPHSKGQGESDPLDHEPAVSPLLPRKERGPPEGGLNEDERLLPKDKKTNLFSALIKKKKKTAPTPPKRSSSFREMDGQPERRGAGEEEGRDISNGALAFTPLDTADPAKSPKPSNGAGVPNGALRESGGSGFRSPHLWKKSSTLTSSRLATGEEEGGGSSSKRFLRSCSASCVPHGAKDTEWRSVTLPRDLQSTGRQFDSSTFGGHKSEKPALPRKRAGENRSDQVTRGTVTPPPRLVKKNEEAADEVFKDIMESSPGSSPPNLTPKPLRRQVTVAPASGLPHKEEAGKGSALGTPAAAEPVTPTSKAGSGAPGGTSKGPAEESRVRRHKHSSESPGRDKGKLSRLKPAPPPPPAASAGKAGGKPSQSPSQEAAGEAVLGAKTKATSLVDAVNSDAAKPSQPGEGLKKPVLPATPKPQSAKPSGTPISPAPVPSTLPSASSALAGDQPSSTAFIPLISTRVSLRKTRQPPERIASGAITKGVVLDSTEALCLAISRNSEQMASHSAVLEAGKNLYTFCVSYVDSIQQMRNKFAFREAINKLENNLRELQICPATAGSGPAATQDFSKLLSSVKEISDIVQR
Sequence of Ret (P07949 29-1114): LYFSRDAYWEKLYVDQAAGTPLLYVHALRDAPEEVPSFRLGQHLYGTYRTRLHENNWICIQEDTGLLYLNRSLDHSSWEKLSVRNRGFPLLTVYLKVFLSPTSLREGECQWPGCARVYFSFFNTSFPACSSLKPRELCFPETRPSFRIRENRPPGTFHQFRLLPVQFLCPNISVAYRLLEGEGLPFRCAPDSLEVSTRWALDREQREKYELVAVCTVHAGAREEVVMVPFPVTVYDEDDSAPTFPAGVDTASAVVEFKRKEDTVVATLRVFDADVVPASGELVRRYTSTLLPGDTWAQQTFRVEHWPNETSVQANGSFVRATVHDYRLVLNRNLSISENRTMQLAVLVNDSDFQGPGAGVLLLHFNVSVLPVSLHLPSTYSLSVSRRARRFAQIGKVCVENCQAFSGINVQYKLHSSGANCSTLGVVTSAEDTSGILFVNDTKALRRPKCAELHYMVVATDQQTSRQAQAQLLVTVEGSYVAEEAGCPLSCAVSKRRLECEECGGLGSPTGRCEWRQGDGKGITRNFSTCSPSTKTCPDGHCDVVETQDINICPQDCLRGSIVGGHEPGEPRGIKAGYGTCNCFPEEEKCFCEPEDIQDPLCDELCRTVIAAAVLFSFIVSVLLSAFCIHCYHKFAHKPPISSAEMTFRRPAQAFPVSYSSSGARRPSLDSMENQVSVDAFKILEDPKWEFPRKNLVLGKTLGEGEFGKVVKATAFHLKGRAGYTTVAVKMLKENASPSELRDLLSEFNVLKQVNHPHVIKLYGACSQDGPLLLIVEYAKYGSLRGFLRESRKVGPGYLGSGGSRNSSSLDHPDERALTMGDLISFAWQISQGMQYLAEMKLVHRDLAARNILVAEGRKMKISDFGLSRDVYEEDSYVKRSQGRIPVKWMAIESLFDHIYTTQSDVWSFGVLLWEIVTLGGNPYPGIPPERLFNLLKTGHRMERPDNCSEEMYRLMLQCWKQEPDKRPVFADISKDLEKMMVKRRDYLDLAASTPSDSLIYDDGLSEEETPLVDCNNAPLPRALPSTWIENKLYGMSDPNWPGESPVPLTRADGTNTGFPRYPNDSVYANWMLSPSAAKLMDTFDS
Sequence of Yes (P07947 whole entry): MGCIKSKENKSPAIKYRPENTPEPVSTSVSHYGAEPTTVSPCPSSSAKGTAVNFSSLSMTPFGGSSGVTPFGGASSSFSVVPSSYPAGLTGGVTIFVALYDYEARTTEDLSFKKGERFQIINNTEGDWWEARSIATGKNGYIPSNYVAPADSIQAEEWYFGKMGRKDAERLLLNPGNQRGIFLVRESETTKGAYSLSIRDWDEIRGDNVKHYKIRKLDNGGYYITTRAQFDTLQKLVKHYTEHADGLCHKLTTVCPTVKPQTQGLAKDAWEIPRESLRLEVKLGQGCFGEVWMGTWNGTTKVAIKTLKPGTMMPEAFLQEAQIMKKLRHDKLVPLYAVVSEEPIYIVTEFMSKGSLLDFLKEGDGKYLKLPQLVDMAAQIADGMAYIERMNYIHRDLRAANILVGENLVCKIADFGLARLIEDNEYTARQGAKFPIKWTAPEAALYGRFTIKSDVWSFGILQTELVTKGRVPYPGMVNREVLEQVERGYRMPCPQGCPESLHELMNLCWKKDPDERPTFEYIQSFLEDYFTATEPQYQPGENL
Sequence of Fyn (P06241 whole entry): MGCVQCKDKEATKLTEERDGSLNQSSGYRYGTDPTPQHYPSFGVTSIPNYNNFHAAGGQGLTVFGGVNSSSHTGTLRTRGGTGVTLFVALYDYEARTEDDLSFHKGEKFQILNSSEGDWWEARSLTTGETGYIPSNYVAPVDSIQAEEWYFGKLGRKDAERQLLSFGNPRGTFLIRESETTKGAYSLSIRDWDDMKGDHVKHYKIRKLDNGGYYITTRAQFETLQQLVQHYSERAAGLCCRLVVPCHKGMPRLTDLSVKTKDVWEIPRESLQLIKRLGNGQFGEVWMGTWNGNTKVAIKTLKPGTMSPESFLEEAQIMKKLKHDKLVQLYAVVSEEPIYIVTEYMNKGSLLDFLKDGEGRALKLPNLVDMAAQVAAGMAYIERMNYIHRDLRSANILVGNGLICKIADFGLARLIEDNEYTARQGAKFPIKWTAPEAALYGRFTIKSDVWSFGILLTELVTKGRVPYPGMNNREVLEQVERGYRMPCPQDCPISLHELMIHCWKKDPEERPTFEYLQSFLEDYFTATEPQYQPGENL
Sequence of Blk (P51451 whole entry): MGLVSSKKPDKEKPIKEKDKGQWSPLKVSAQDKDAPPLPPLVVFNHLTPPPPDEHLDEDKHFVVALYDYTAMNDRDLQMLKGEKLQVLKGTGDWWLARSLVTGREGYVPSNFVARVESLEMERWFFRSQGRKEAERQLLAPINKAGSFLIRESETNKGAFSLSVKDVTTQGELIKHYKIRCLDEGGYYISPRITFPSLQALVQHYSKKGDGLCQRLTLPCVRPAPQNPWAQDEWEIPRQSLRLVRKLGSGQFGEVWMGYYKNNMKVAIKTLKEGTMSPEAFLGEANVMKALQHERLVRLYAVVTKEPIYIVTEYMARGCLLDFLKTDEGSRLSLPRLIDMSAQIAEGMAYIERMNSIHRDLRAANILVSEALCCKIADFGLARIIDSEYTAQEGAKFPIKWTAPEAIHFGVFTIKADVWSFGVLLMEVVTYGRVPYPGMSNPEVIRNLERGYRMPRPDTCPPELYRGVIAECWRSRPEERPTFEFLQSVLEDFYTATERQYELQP

`COc1cccc(-c2cn(C(C)(C)C)c3ncnc(N)c23)c1` [Compound 5, reference compound] was tested, and the “IC50 of Kinase/IC50 of Yes” value ([1]; Abl relative to Yes) was 2.65, the inhibition at 0.2 µM ([1]; Abl, 200 nM, average of 2 runs) was 37% and the inhibition at 1 µM ([1]; Abl, 1000 nM, average of 2 runs) was 78%. The IC50 ([1]; Abl, error is standard deviation) was 244 nM, the inhibition at 0.2 µM ([2]; 200 nM) was 11% and the inhibition at 1 µM ([2]; 1000 nM) was 23%. The inhibition at 0.2 µM ([3]; 200 nM) was 38%, the inhibition at 1 µM ([3]; 1000 nM) was 74% and the inhibition at 0.2 µM ([4]; 200 nM) was 62%. The inhibition at 1 µM ([4]; 1000 nM) was 90%, the inhibition at 0.2 µM ([5]; 200 nM) was 36% and the inhibition at 1 µM ([5]; 1000 nM) was 65%. The “IC50 of Kinase/IC50 of Yes” value ([6]; EGFR relative to Yes) was 7 and 6.96, the inhibition at 0.2 µM ([6]; EGFR, 200 nM, average of 2 runs) was 28% and the inhibition at 1 µM ([6]; EGFR, 1000 nM, average of 2 runs) was 62%. The IC50 ([6]; EGFR, error is standard deviation) was 641 nM, the inhibition at 0.2 µM ([7]; 200 nM) was 4% and the inhibition at 1 µM ([7]; 1000 nM) was 16%. It also gave an inhibition at 0.2 µM ([8]; 200 nM) of 69%, an inhibition at 1 µM ([8]; 1000 nM) of 92% and an inhibition at 0.2 µM ([9]; 200 nM) of 56%. For the same compound, the inhibition at 1 µM ([9]; 1000 nM) was 84%, the inhibition at 0.2 µM ([10]; 200 nM) was 59% and the inhibition at 1 µM ([10]; 1000 nM) was 80%. It also gave an inhibition at 0.2 µM ([11]; 200 nM) of 8%, an inhibition at 1 µM ([11]; 1000 nM) of 27% and an inhibition at 0.2 µM ([12]; 200 nM) of 32%. It also gave an inhibition at 1 µM ([12]; 1000 nM) of 79%, an inhibition at 0.2 µM ([13]; 200 nM) of 58% and an inhibition at 1 µM ([13]; 1000 nM) of 85%. For the same compound, the inhibition at 0.2 µM ([14]; 200 nM) was 11%, the inhibition at 1 µM ([14]; 1000 nM) was 34% and the inhibition at 0.2 µM ([15]; 200 nM) was 6%. The inhibition at 1 µM ([15]; 1000 nM) was 19%, the “IC50 of Kinase/IC50 of Yes” value ([16]; Ret relative to Yes) was 1.4 and the inhibition at 0.2 µM ([16]; Ret, 200 nM, average of 2 runs) was 59%. For the same compound, the inhibition at 1 µM ([16]; Ret, 1000 nM, average of 2 runs) was 89%, the IC50 ([16]; Ret, error is standard deviation) was 128 nM and the “IC50 of Kinase/IC50 of Yes” value ([17]; Yes relative to Yes) was 1. It also gave an inhibition at 0.2 µM ([17]; Yes, 200 nM, average of 2 runs) of 63%, an inhibition at 1 µM ([17]; Yes, 1000 nM, average of 2 runs) of 90% and an IC50 ([17]; Yes, error is standard deviation) of 92 nM. For the same compound, the “IC50 of Kinase/IC50 of Yes” value ([18]; Src relative to Yes) was 1.64, the IC50 ([18]; Src, error is standard deviation) was 151 nM and the “S(40%)” value ([19]; 200 nM) was 0.44. For the same compound, the “S(40%)” value ([19]; 1000 nM) was 0.72 and the “relative selectivities favoring Yes (IC50 kinase/IC50 YES) over Ret, Src, and Abl” value ([19]; Ret, Src, Abl vs Yes) was 1.4-2.65 fold.
